The record followed here is patent US20120035247A1, “RNA Interference Mediated Inhibition of Signal Transducer and Activator of Transcription 6 (STAT6) Gene Expression Using Short Interfering Nucleic Acid (siNA)” (Merck Sharp & Dohme Corp., priority 2009, published 2012).

For data set [1], the system named is STAT6 mRNA. The experiment in a line: STAT6 siNA screen in mouse NIH 3T3 cells, STAT6 mRNA by quantitative RT-PCR (Taqman). The format is cell-based. The following applies: mouse NIH3T3 cells, 10 nM siNA, 24 hrs, normalized to GAPDH and non-targeting control, n = 2. In a few lines: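 NIH 3T3 cells, 5000/well, transfected after 24 h with siNA (10 nM final) via RNAiMax and harvested 24 h later. STAT6 mRNA quantified by TaqMan RT-qPCR with GAPDH; knock-down by comparative Ct (2^−ΔΔCt) against non-targeting control siNA.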
In general terms: In qPCR the cycle at which signal appears reflects the starting amount.

The subject of data set [2] is STAT6 mRNA. The experiment in a line: STAT6 siNA screen and dose response in human A549 cells, STAT6 mRNA by quantitative RT-PCR (Taqman). The settings on record: human A549 cells, 10 nM siNA, 24 hrs, normalized to GAPDH and non-targeting control, mean ± S.D., n = 3. The format is cell-based. In a few lines:
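A549 cells were transfected with siNA–RNAiMax complexes at a final 10 nM siNA and incubated 24 h without a medium change. STAT6 mRNA was measured by TaqMan qRT-PCR on cell lysates. Knock-down was calculated by the comparative Ct (ΔΔCt) method against the non-targeting control siNA, with relative expression taken as 2^−ΔΔCt.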

[invAb] = inverted abasic unit; d = 2'-deoxy (DNA); m = 2'-O-methyl; r = 2'-OH (RNA); f = 2'-fluoro

As to “30012-DC: STAT6 siNA duplex; sense SEQ ID NO: 88, antisense SEQ ID NO: 89; target CAUCGUGCAUGGUAACCAA, site 1521 (sense CAUCGUGCAUGGUAACCAATT; antisense UUGGUUACCAUGCACGAUGUU; sense: DNA at AGT, 2'-fluoro at CU, [invAb] at 5' end, 3' end, backbone not given here; antisense: sugars from the 5' end rrrmffmffmfmfmfmmfmmm, backbone not given here) [STAT6 siNA duplex; target CAUCGUGCAUGGUAACCAA, site 1521]”, the “% KD STAT6” value with STAT6 mRNA [1] is given as 18 ± 3.2%; in the data set on STAT6 mRNA [2], −13.7 ± 15.8%.

Consider “29991-DC: STAT6 siNA duplex; sense SEQ ID NO: 46, antisense SEQ ID NO: 47; target CAGCCAAAGCCCUAGUGCU, site 846 (sense CAGCCAAAGCCCUAGUGCUTT; antisense AGCACUAGGGCUUUGGCUGUU; sense: DNA at AGT, 2'-fluoro at CU, [invAb] at 5' end, 3' end, backbone not given here; antisense: sugars from the 5' end rrrmffmmmmffffmmffmmm, backbone not given here) [STAT6 siNA duplex; target …UAGUGCU, site 846]”, for which the entries for the “% KD STAT6” value with STAT6 mRNA [1] and in the data set with STAT6 mRNA [2] were −30 ± 9.2% and −2.1 ± 17.7%, respectively.

Regarding “30007-DC: STAT6 siNA duplex; sense SEQ ID NO: 78, antisense SEQ ID NO: 79; target GGAAGUUCAGGCUCUGAGA, site 3048 (sense GGAAGUUCAGGCUCUGAGATT; antisense UCUCAGAGCCUGAACUUCCUU; sense: sugars from the 5' end d5 f3 d3 f4 d6, [invAb] at 5' end, 3' end, backbone not given here; antisense: sugars from the 5' end rrrfmmmmfffmmmfffffmm, backbone not given here) [STAT6 siNA duplex; target GGAAGUUCAGGCUCUGAGA, site 3048]”, the “% KD STAT6” value is 8.1 ± 0.8% in the data set with STAT6 mRNA [1] and 59.8 ± 8.6% in the data set with STAT6 mRNA [2].

Regarding “30023-DC: STAT6 siNA duplex; sense SEQ ID NO: 110, antisense SEQ ID NO: 111; target CACCUUAUGAUCUUGGAAU, site 2288 (sense CACCUUAUGAUCUUGGAAUTT; antisense AUUCCAAGAUCAUAAGGUGUU; sense: DNA at AGT, 2'-fluoro at CU, [invAb] at 5' end, 3' end, backbone not given here; antisense: sugars from the 5' end rrrffmmmmffmfmmmmfmmm, backbone not given here) [STAT6 siNA duplex; target CACCUUAUGAUCUUGGAAU, site 2288]”, the “% KD STAT6” value was −0.8 ± 3.8% in the data set on STAT6 mRNA [1] and 15.3 ± 05.4% in the data set on STAT6 mRNA [2].

As for “30014-DC: STAT6 siNA duplex; sense SEQ ID NO: 92, antisense SEQ ID NO: 93; target GGCCUUUCAGCACCGCUGU, site 1755 (sense GGCCUUUCAGCACCGCUGUTT; antisense ACAGCGGUGCUGAAAGGCCUU; sense: DNA at AGT, 2'-fluoro at CU, [invAb] at 5' end, 3' end, backbone not given here; antisense: sugars from the 5' end rrrmfmmfmffmmmmmmffmm, backbone not given here) [STAT6 siNA duplex; target GGCCUUU…UGU, site 1755]”, the “% KD STAT6” value with STAT6 mRNA [1] is 30.6 ± 2.8%; with STAT6 mRNA [2], −0.4 ± 17.4%.
